# Experimental data published in ChEMBL document CHEMBL3243975 (J Med Chem, 1978).
# What was measured:
# [1] = organism: Sus scrofa; test: Binding affinity to pig ileum opioid receptor; type: tissue-based
# [2] = organism: Sus scrofa; test: Agonist activity at pig ileum opioid receptor; type: tissue-based
# [3] = organism: Rattus norvegicus; test: Narcotic agonist activity in rat by writhing test; type: functional
# [4] = organism: Mus musculus; test: Narcotic agonist activity in mouse by writhing test; type: functional
# [5] = test system: Rattus norvegicus; test: Narcotic antagonist activity in sc dosed rat assessed as inhibition of oxymorphone-induced straub tail effect; type: functional
# [6] = test system: Mus musculus; test: Narcotic antagonist activity in sc dosed mouse assessed as inhibition of oxymorphone-induced nacrosis; type: functional
# [7] = organism: Rattus norvegicus; test: Narcotic agonist activity in rat by hot plate test; type: functional
Compound,Ke [1] [nM],ID50 [2] [nM],ED50 [3] [mg/kg],ED50 [4] [mg/kg],ED50 [5] [mg/kg],ED50 [6] [mg/kg],ED50 [7] [mg/kg]
O=C1CC[C@@]2(O)[C@H]3Cc4ccc(O)c5c4[C@@]2(CCN3CC2CCC2)[C@H]1O5,3,60,0.06,0.39,0.19,0.57,
O=C1CC[C@@]2(O)[C@H]3Cc4ccc(O)c5c4[C@@]2(CCN3CCc2ccccc2)[C@H]1O5,,,,,,,0.014
CN1CC[C@]23c4c5ccc(O)c4O[C@H]2[C@@H](O)C=C[C@H]3[C@H]1C5 [MORPHINE],,,0.26,0.8,,,
CC(C)=CCN1CC[C@]23c4c5ccc(O)c4O[C@H]2C(=O)CC[C@@]3(O)[C@H]1C5 [NALMEXONE],43,400,0.74,2,1.4,5.6,10.7
C=CCN1CC[C@]23c4c5ccc(O)c4O[C@H]2[C@@H](O)C=C[C@H]3[C@H]1C5 [NALORPHINE],,24.3,1,,0.9,1.45,
C=CCN1CC[C@]23c4c5ccc(O)c4O[C@H]2C(=O)CC[C@@]3(O)[C@H]1C5 [NALOXONE],,,> 100,> 100,0.051,0.14,
O=C1CC[C@@]2(O)[C@H]3Cc4ccc(O)c5c4[C@@]2(CCN3CC2CC2)[C@H]1O5 [NALTREXONE],0.38,> 850,0.14,> 100,0.023,0.047,
CN1CC[C@]23c4c5ccc(O)c4O[C@H]2C(=O)CC[C@@]3(O)[C@H]1C5 [OXYMORPHONE],11.2,12.1,0.02,0.046,,,0.17
